Literature values as cited in US20070026026A1 (priority 2005, published 2007).

Key:
[1] = room temperature; cited from earlier work
cytochrome P450 3A4 = cytochrome P450 3A4 (Homo sapiens, UniProt P08684); details: in vitro studies; cited from earlier work
cytochrome P450 2C9 = cytochrome P450 2C9 (Homo sapiens, UniProt P11712); details: in vitro studies; cited from earlier work
[2] = cited from earlier work
AT1 receptor = target: T1, AT1 receptor (Homo sapiens, UniProt P30556); details: cited from earlier work
T1 sequence (P30556 1-359): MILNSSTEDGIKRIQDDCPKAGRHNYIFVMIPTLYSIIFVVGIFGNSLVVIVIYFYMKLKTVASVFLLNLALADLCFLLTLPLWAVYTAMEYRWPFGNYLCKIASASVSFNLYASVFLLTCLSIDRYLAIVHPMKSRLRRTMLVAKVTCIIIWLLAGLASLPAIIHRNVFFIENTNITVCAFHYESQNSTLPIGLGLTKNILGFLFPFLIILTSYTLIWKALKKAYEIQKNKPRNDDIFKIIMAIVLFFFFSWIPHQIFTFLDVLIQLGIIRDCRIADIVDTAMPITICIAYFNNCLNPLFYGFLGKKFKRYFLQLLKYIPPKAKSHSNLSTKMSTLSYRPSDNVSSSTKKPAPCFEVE

Chain of cytochrome P450 3A4 (P08684 whole entry): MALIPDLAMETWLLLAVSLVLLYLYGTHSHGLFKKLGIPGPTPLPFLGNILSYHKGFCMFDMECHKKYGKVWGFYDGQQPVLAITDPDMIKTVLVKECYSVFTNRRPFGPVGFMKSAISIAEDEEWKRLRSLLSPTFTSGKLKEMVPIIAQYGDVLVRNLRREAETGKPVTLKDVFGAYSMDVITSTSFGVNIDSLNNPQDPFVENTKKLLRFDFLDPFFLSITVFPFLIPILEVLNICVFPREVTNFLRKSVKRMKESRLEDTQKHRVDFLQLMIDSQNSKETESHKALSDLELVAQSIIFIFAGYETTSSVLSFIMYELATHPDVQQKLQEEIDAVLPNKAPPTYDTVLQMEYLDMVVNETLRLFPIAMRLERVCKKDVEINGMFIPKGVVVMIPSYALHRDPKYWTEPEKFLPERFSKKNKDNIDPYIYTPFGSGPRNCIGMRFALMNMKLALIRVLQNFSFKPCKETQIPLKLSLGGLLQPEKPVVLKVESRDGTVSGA
Chain of cytochrome P450 2C9 (P11712 whole entry): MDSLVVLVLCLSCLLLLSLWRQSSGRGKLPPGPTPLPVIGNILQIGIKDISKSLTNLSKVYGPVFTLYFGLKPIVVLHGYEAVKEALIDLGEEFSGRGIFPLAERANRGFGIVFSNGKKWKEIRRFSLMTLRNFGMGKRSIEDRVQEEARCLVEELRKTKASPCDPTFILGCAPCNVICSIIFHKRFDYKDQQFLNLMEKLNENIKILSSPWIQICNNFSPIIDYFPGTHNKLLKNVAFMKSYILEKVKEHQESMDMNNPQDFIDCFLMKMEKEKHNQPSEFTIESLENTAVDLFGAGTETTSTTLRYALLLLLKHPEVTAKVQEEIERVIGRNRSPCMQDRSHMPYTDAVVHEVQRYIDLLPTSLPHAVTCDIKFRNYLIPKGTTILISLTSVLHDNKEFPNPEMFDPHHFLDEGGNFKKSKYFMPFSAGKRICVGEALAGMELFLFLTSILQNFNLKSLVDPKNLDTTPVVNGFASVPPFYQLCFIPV

For `CCCCc1nc(Cl)c(CO)n1Cc1ccc(-c2ccccc2-c2nnn[n-]2)cc1.[K+]` [Form I], the “thermodynamic stability of the polymorph” value [1] is listed as “more thermodynamically stable polymorph”.
In the case of `CCCCc1nc(Cl)c(CO)n1Cc1ccc(-c2ccccc2-c2nn[nH]n2)cc1` [losartan], the “involvement in the biotransformation of losartan to its metabolites” value (cytochrome P450 3A4) is listed as “involved”, the “involvement in the biotransformation of losartan to its metabolites” value (cytochrome P450 2C9) is listed as “involved” and the terminal half-life ([2]; in vivo) is listed as “about 2 hours”. For the same compound, the “maximum plasma concentrations of losartan and its active metabolite compared” value ([2]; oral administration) was “approximately equal”, the systemic bioavailability ([2]; oral administration) was “approximately 33%” and the “time to mean peak concentrations” value ([2]; oral administration) was 1 h. For the same compound, the “pharmacokinetics, dose dependence” value ([2]; oral losartan doses up to 200 mg) was “linear”, the “effect of a meal on AUC (decrease)” value ([2]; with a meal) was “about 10%” and the “effect of a meal on Cmax” value ([2]; with a meal) was “decreases”. For the same compound, the “effect of a meal on absorption” value ([2]; with a meal) was “slows absorption” and the “partial agonist activity at the AT1 receptor” value (AT1 receptor) was “do not exhibit any partial agonist activity”.
